Data published in patent publication US20070197657A1, “Method for treating non-inflammatory musculoskeletal pain” (SRZ Properties, Inc., priority 2005, published 2007).
Entries after “also recorded” stand apart in the source; their conditions may differ.

Columns and labels:
[1] = test system: muscle pressure hyperalgesia induced by TNF; assay: TNF-induced muscle pressure hyperalgesia (Randall-Selitto, gastrocnemius muscle); format: in vivo, rat; conditions: for reversal of muscular mechanical hyperalgesia (withdrawal threshold to muscle pressure): TNF 1 μg i.m. gastrocnemius, 30 mg/kg
Description: (§1) The model used in this example is applicable to musculoskeletal pain which occurs in fibromyalgia, myofascial pain syndrome or back pain. For comparative purposes, the non-opioid analgesic dipyrone (metamizol) and the anticonvulsants pregabalin and gabapentin were included in the study.
(§2) Adult male Sprague Dawley rats with a body weight of 250 g to 300 g were used (supplier: Charles River, Sulzfeld, Germany). Animals were group-housed (3 animals per cage) and maintained in a room with controlled temperature (21-22° C.) and a reversed light-dark cycle (12 h/12 h) with food and water available ad libitum. All experiments were approved by the Bavarian State animal experimentation committee and carried out in accordance with its regulations.
(§3) Recombinant rat tumor necrosis factor alpha (herein referred to as TNF) was obtained from R&D Systems, Minneapolis, Minn., U.S.A. TNF was diluted in 0.9% NaCl and used in a concentration of 1 μg in 50 μl. Injections were performed in short halothane narcosis with a 30 g needle bilaterally into the gastrocnemius or into the biceps brachii muscle. All rats were used to the behavioral tests before injections and baseline values were recorded over three test days.
Mechanical withdrawal thresholds to muscle pressure were measured with an analgesimeter (Ugo Basile, Comerio, Italy). The rat was allowed to crawl into a sock which helps the rat to relax. The hind limbs were positioned such that an increasing pressure could be applied onto the gastrocnemius muscle (maximum 250 g). The pressure needed to elicit withdrawal was recorded. Means of 3 trials for each hind limb were calculated (interstimulus interval of >30 sec). Only animals with a significant TNF effect were included for further analysis.
Rats were injected with TNF into the gastrocnemius muscle at 2 pm. Eighteen hours later, rats were tested for pressure hyperalgesia pre- and post-administration of the test drug. Rats were tested for pressure hyperalgesia 30 to 60 minutes after drug administration.
(§4) The rats, initially 10 per group, were treated with either 3, 10 or 30 mg/kg lacosamide, 2 mg/kg metamizol, 30 or 100 mg/kg pregabalin, 100 mg/kg gabapentin, or the NaCl vehicle, i.p. (intraperitoneally). Volume of i.p. injections was 0.5 ml. A pilot study was performed to confirm that i.m. (intramuscular) injection of 1 μg TNF into the gastrocnemius muscle was sufficient to induce pressure hyperalgesia.
(§5) Data are shown in graphs displaying means and standard errors of the means (SEM). Pre- and post-treatment data were compared using ANOVA (analysis of variance) and a Tukey post hoc test. Means of treatment groups were compared using a one-way ANOVA and Dunnett's post hoc test. Maximal possible effects (MPE) were calculated for all types of treatment.

[2] = test system: monosodium iodoacetate-induced tactile allodynia; assay: monosodium iodoacetate-induced tactile allodynia (von Frey filaments); format: in vivo, rat
[3] = test system: formalin-induced flinching and licking of the affected paw; assay: rat formalin paw test (late phase); format: in vivo
Protocol: Rats were given an intraplantar injection of 5% formalin (50 μl) into the posterior left paw. This treatment induces a recognizable flinching and licking response of the affected paw in control animals. The number of flinches was counted for 15 minutes, beginning 20 minutes after injection of formalin. The time spent licking the affected paw was also recorded.
Male Rj: Wistar (Han) rats, 10 per group, weighing 100-130 g at the beginning of the experiments were studied per group. The test was performed blind.
Lacosamide (20 mg/kg), gabapentin (50 and 100 mg/kg), combinations of lacosamide (20 mg/kg) with gabapentin (50 and 100 mg/kg), and vehicle were administered i.p. 10 minutes before injection of formalin.
Lacosamide (10 and 20 mg/kg), morphine (2 and 4 mg/kg), combinations of lacosamide (10 and 20 mg/kg) with morphine (2 and 4 mg/kg), and vehicle were administered i.p. 10 minutes before injection of formalin.
Lacosamide (10 mg/kg), duloxetine (8 mg/kg), a combination of lacosamide (10 mg/kg) with duloxetine (8 mg/kg), and vehicle were administered i.p. 10 minutes before injection of formalin.
Lacosamide (10 and 20 mg/kg), memantine (4 and 8 mg/kg), combinations of lacosamide (10 and 20 mg/kg) with memantine (4 and 8 mg/kg), and vehicle were administered i.p. 10 minutes before injection of formalin.
Lacosamide (10 and 20 mg/kg), naproxen (8 and 16 mg/kg), combinations of lacosamide (10 and 20 mg/kg) with […] (8 and 16 mg/kg), and vehicle were administered i.p. 10 minutes before injection of formalin. Morphine (8 mg/kg) was included as a comparative treatment.

[4] = test system: monosodium iodoacetate-induced mechanical hyperalgesia; assay: monosodium iodoacetate-induced mechanical hyperalgesia (Randall-Selitto paw pressure); format: in vivo, rat; conditions: for mechanical hyperalgesia (paw pressure withdrawal threshold): day 7
[5] = test system: TNF-induced reduction of grip strength; assay: biceps muscle grip strength after TNF-induced muscle pain; format: in vivo, rat; conditions: for reversal of TNF-induced reduction of grip strength: TNF 1 μg i.m. biceps brachii
Description: as §1, §2, §3
Grip strength of the forelimbs was tested with a digital grip force meter (DFIS series, Chatillon, Greensboro, N.C., U.S.A.). The rat was positioned to grab the grid with the forelimbs and was gently pulled so that the grip strength could be recorded. Means of three trials were calculated. The effect of the TNF treatment was calculated for each animal separately and only animals with a significant TNF effect were included for further analysis.
Rats were injected with TNF into the biceps brachii muscle at 8 am. Six hours later, grip strength of the forelimbs was tested with a digital grip force meter. Test drug was administered, and grip strength was again tested after 30 to 60 minutes.
as §4, §5

[6] = Example 3, lacosamide 20 mg/kg i.p.
[7] = Example 4, lacosamide 10 mg/kg i.p.
[8] = Example 4, lacosamide 20 mg/kg i.p.
[9] = Example 5, lacosamide 10 mg/kg i.p.
[10] = Example 6, lacosamide 10 mg/kg i.p.
[11] = Example 6, lacosamide 20 mg/kg i.p.
[12] = Example 7, lacosamide 10 mg/kg i.p.
[13] = Example 7, lacosamide 20 mg/kg i.p.

Compound: COC[C@@H](NC(C)=O)C(=O)NCc1ccccc1 [Lacosamide, (R)-2-acetamido-N-benzyl-3-methoxypropionamide]
- MPE (maximal possible effect) on muscle pressure hyperalgesia, versus vehicle ([1]; 10 mg/kg i.p.): significantly different from vehicle
- MPE (maximal possible effect) on muscle pressure hyperalgesia, versus vehicle ([1]; 30 mg/kg i.p.): significantly different from vehicle
- reversal of muscular mechanical hyperalgesia (withdrawal threshold to muscle pressure) ([1]; 30 mg/kg i.p.): full reversal
- reversal of muscular mechanical hyperalgesia (withdrawal threshold to muscle pressure) ([1]; 30 mg/kg i.p., listed as lacosamide): complete reversal
- effect on muscle pain in comparison to pregabalin and gabapentin ([1]; paw pressure test): stronger effect
- tactile allodynia of iodoacetate-treated rats ([2]; day 3, 30 mg/kg (lacosamide p.o., diclofenac s.c.)): improved
- tactile allodynia of iodoacetate-treated rats ([2]; day 7, 30 mg/kg (lacosamide p.o., diclofenac s.c.)): improved
- tactile allodynia of iodoacetate-treated rats ([2]; day 14, 30 mg/kg (lacosamide p.o., diclofenac s.c.)): not on day 14
- tactile allodynia of iodoacetate-treated rats ([2]; lower doses of lacosamide (3, 10 mg/kg p.o.)): showed a trend for such improvement
- Licking time % change (a): compared with vehicle control [3, 6]: −34%
- Licking time (seconds) mean ± SEM [3, 6]: 146.9 ± 23.8 s
- No. of flinches % change (a): compared with vehicle control [3, 6]: −33%
- No. of flinches mean ± SEM [3, 6]: 85.7 ± 14.3
- decrease in the number of flinches as compared with vehicle controls [3, 6]: 33%
- decrease in the time spent licking as compared with vehicle controls [3, 6]: 34%
- Licking time % change (a): compared with vehicle control [3, 7]: −28%
- Licking time (seconds) mean ± SEM [3, 7]: 210.1 ± 22.7 s
- No. of flinches % change (a): compared with vehicle control [3, 7]: +22%
- No. of flinches mean ± SEM [3, 7]: 182.7 ± 25.9
- decrease in the time spent licking as compared with vehicle controls [3, 7]: 28%
- increase in the number of flinches as compared with vehicle controls [3, 7]: 22%
- Licking time % change (a): compared with vehicle control [3, 8]: −56%
- Licking time (seconds) mean ± SEM [3, 8]: 128.2 ± 28.0 s
- No. of flinches % change (a): compared with vehicle control [3, 8]: −35%
- No. of flinches mean ± SEM [3, 8]: 97.2 ± 16.0
- decrease in the number of flinches as compared with vehicle controls [3, 8]: 35%
- decrease in the time spent licking as compared with vehicle controls [3, 8]: 56%
- Licking time % change (a): compared with vehicle control [3, 9]: −30%
- Licking time (seconds) mean ± SEM [3, 9]: 185.2 ± 31.7 s
- No. of flinches % change (a): compared with vehicle control [3, 9]: +5%
- No. of flinches mean ± SEM [3, 9]: 158.2 ± 15.6
- decrease in the time spent licking [3, 9]: 30%
- effects on number of flinches and time spent licking [3, 9]: no significant effects
- Licking time % change (a): compared with vehicle control [3, 10]: −4%
- Licking time (seconds) mean ± SEM [3, 10]: 168.5 ± 23.9 s
- No. of flinches % change (a): compared with vehicle control [3, 10]: −31%
- No. of flinches mean ± SEM [3, 10]: 113.9 ± 23.2
- decrease in the number of flinches as compared with vehicle controls [3, 10]: 31%
- effect on the time spent licking [3, 10]: no clear effects
- Licking time % change (a): compared with vehicle control [3, 11]: −52%
- Licking time (seconds) mean ± SEM [3, 11]: 85.1 ± 19.1 s
- No. of flinches % change (a): compared with vehicle control [3, 11]: −48%
- No. of flinches mean ± SEM [3, 11]: 85.8 ± 14.4
- decrease in the number of flinches as compared with vehicle controls [3, 11]: 48%
- decrease in the time spent licking [3, 11]: 52%
- Licking time % change (a): compared with vehicle control [3, 12]: −9%
- Licking time (seconds) mean ± SEM [3, 12]: 174.7 ± 20.4 s
- No. of flinches % change (a): compared with vehicle control [3, 12]: −13%
- No. of flinches mean ± SEM [3, 12]: 99.2 ± 16.6
- effect on the time spent licking [3, 12]: no clear effects
- Licking time % change (a): compared with vehicle control [3, 13]: −59%
- Licking time (seconds) mean ± SEM [3, 13]: 78.9 ± 20.4 s
- No. of flinches % change (a): compared with vehicle control [3, 13]: −12%
- No. of flinches mean ± SEM [3, 13]: 100.3 ± 22.3
- decrease in the time spent licking [3, 13]: 59%
- effect on the number of flinches as compared with vehicle controls ([3]; Example 7, lacosamide 10 and 20 mg/kg i.p.): did not clearly affect
- mechanical hyperalgesia (paw pressure withdrawal threshold) compared to iodoacetate/vehicle treated animals ([4]; day 3, 3 mg/kg (lacosamide p.o., morphine s.c.)): increase in paw pressure withdrawal threshold
- mechanical hyperalgesia (paw pressure withdrawal threshold) ([4]; 3 mg/kg (lacosamide p.o., morphine s.c.)): reduced mechanical hyperalgesia
- mechanical hyperalgesia (paw pressure withdrawal threshold) ([4]; 30 mg/kg (lacosamide p.o., diclofenac s.c.)): reduced mechanical hyperalgesia
- MPE (maximal possible effect) on biceps muscle grip strength, versus vehicle ([5]; 10 mg/kg i.p.): significantly different from vehicle
- MPE (maximal possible effect) on biceps muscle grip strength, versus vehicle ([5]; 30 mg/kg i.p.): significantly different from vehicle
- reversal of TNF-induced reduction of grip strength ([5]; 10 mg/kg i.p., 10 mg/kg): significant reversal; also recorded: reversed the effect of TNF
- reversal of TNF-induced reduction of grip strength ([5]; 30 mg/kg i.p.): significant reversal
- potency compared with pregabalin and gabapentin ([5]; grip strength test): more potent
